ChEMBL document CHEMBL1201862, “PubChem BioAssay data set” (2004)
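Protocol summary: plate cells (96-well), add compound at 5 concentrations, incubate 48 h, interpolate endpoints linearly. GI50 is the concentration that inhibits growth by half.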 The source made the active and inactive calls. No stated cut-off is given here; in the data, active = GI50 up to about 1.1 µM and inactive = higher. Non-standard residues stand in square brackets, D forms with d. Residues, ends and D or L forms follow the SMILES beside them. β3hI = CC[CH](C)[CH](N)CC(=O)O

Legend:
Experiment in all cases: NCI anticancer screen, dose series, 48 h
LOX IMVI = tested on: LOX IMVI
MCF7 = tested on: MCF7
HT-29 = tested on: HT-29
OVCAR-5 = tested on: OVCAR-5
UACC-62 = tested on: UACC-62
Hs-578T = tested on: Hs-578T
CCRF-CEM = tested on: CCRF-CEM
DU-145 = tested on: DU-145
SF-268 = tested on: SF-268
SF-295 = tested on: SF-295
IGROV-1 = tested on: IGROV-1
KM12 = tested on: KM12
ACHN = tested on: ACHN
T47D = tested on: T47D
NCI-H23 = tested on: NCI-H23
SNB-75 = tested on: SNB-75
SF-539 = tested on: SF-539
SW-620 = tested on: SW-620
SK-MEL-5 = tested on: SK-MEL-5
EKVX = tested on: EKVX

SMILES	GI50 (LOX IMVI)	GI50 (MCF7)	GI50 (HT-29)	GI50 (OVCAR-5)	GI50 (UACC-62)	GI50 (Hs-578T)	GI50 (CCRF-CEM)	GI50 (DU-145)	GI50 (SF-268)	GI50 (SF-295)	GI50 (IGROV-1)	GI50 (KM12)	GI50 (ACHN)	GI50 (T47D)	GI50 (NCI-H23)	GI50 (SNB-75)	GI50 (SF-539)	GI50 (SW-620)	GI50 (SK-MEL-5)	GI50 (EKVX)
[N-]=[N+]=Nc1c(Cl)c(=O)n(-c2ccccc2)c2ccccc12	14.9 µM (inactive)	21.8 µM (inactive)	23.2 µM (inactive)	24.3 µM (inactive)	15.1 µM (inactive)	25.3 µM (inactive)	11.9 µM (inactive)	29.2 µM (inactive)	19.8 µM (inactive)	30.7 µM (inactive)	15.6 µM (inactive)	39.5 µM (inactive)	21.5 µM (inactive)	11.8 µM (inactive)	19.6 µM (inactive)	18.5 µM (inactive)	22.3 µM (inactive)	14.6 µM (inactive)	3.15 µM (inactive)	
COc1ccc(CCN2CCN(CCCc3ccccc3)CC2)cc1	> 100 µM (inactive)	> 100 µM (inactive)	33.5 µM (inactive)	77.1 µM (inactive)	> 100 µM (inactive)	> 100 µM (inactive)	> 100 µM (inactive)	> 100 µM (inactive)	> 100 µM (inactive)	> 100 µM (inactive)	96.8 µM (inactive)	72.6 µM (inactive)	> 100 µM (inactive)	34 µM (inactive)	64.3 µM (inactive)		> 100 µM (inactive)	> 100 µM (inactive)	23.2 µM (inactive)	> 100 µM (inactive)
COC1OC2COC(C)(C)OC2C2OC(C)(C)OC12 (stereo not drawn)		23.6 µM (inactive)	60.5 µM (inactive)	> 100 µM (inactive)	45.1 µM (inactive)	17 µM (inactive)	19 µM (inactive)	> 100 µM (inactive)	> 100 µM (inactive)	22.6 µM (inactive)	18.7 µM (inactive)	> 100 µM (inactive)	41.8 µM (inactive)	> 100 µM (inactive)	82.4 µM (inactive)			> 100 µM (inactive)	> 100 µM (inactive)	25.7 µM (inactive)
CN(C)c1c(C2OC(CO)C(O)C2O)c(=O)c1=O (stereo not drawn)	> 100 µM (inactive)		> 100 µM (inactive)	> 100 µM (inactive)	> 100 µM (inactive)	> 100 µM (inactive)	82.2 µM (inactive)	> 100 µM (inactive)	> 100 µM (inactive)		> 100 µM (inactive)	> 100 µM (inactive)	> 100 µM (inactive)	> 100 µM (inactive)	> 100 µM (inactive)	> 100 µM (inactive)	< 0.01 µM (active)	> 100 µM (inactive)		> 100 µM (inactive)
CCC(C)C(CC(=O)N1CCCC1C(=O)NC(C(=O)NC(C(=O)NCC(=O)NC(CC(N)=O)C(=O)NC(C(=O)NC(C(=O)NC(CCCCN)C(N)=O)C(C)CC)C(C)CC)C(C)C)C(C)CC)NC(=O)C(N)C(C)CC (stereo not drawn) (H-I[β3hI]PIVGNIIK-NH2; configuration not given here)	> 50 µM (inactive)	> 50 µM (inactive)	> 50 µM (inactive)	> 50 µM (inactive)	> 50 µM (inactive)	> 50 µM (inactive)	10.5 µM (inactive)	> 50 µM (inactive)	> 50 µM (inactive)	> 50 µM (inactive)	> 50 µM (inactive)	> 50 µM (inactive)	> 50 µM (inactive)	> 50 µM (inactive)	> 50 µM (inactive)		> 50 µM (inactive)	> 50 µM (inactive)	> 50 µM (inactive)	> 50 µM (inactive)
Cc1c(S(=O)(=O)N/C(=N\O)Nc2ccc(Cl)cc2)sc2ccc(Cl)cc12	17 µM (inactive)		19.3 µM (inactive)	18.1 µM (inactive)	16.1 µM (inactive)	18.8 µM (inactive)	38.4 µM (inactive)	23.3 µM (inactive)	18.1 µM (inactive)	17.6 µM (inactive)	12.7 µM (inactive)	18.4 µM (inactive)	15.2 µM (inactive)	19 µM (inactive)	18 µM (inactive)	18.7 µM (inactive)	21.5 µM (inactive)	25.1 µM (inactive)	14.1 µM (inactive)	12.3 µM (inactive)
COc1ccc2c(cnc3c4cc(OC)c(OC)cc4ccc23)c1	> 100 µM (inactive)	> 100 µM (inactive)	> 100 µM (inactive)	> 100 µM (inactive)	> 100 µM (inactive)	> 100 µM (inactive)	> 100 µM (inactive)	> 100 µM (inactive)	> 100 µM (inactive)	> 100 µM (inactive)	> 100 µM (inactive)	> 100 µM (inactive)	> 100 µM (inactive)	> 100 µM (inactive)	> 100 µM (inactive)		> 100 µM (inactive)	> 100 µM (inactive)	> 100 µM (inactive)	> 100 µM (inactive)
O=C1C=CC(=O)N1n1c(Cc2ccccc2)n[nH]c1=O	> 100 µM (inactive)	> 100 µM (inactive)	> 100 µM (inactive)	> 100 µM (inactive)	> 100 µM (inactive)	> 100 µM (inactive)	> 100 µM (inactive)	> 100 µM (inactive)	> 100 µM (inactive)	> 100 µM (inactive)	> 100 µM (inactive)	> 100 µM (inactive)	> 100 µM (inactive)	> 100 µM (inactive)	> 100 µM (inactive)		> 100 µM (inactive)	> 100 µM (inactive)	> 100 µM (inactive)	> 100 µM (inactive)
NCCCNc1ccc2c3c(nn2CCNCCO)-c2c(O)ccc(O)c2C(=O)c13	0.927 µM (active)	0.418 µM (active)	3.68 µM (inactive)	4.28 µM (inactive)	0.883 µM (active)	0.787 µM (active)		1.29 µM (inactive)	1.35 µM (inactive)	0.889 µM (active)	2.46 µM (inactive)	3.78 µM (inactive)	0.989 µM (active)	2.18 µM (inactive)	1.25 µM (inactive)	0.889 µM (active)		1.15 µM (inactive)	0.925 µM (active)	
O=[N+]([O-])c1ccc(/N=N/c2c(O)ccc3cc(S(=O)(=O)O)cc(S(=O)(=O)O)c23)cc1	> 100 µM (inactive)		> 100 µM (inactive)	> 100 µM (inactive)	> 100 µM (inactive)	> 100 µM (inactive)	> 100 µM (inactive)	> 100 µM (inactive)	> 100 µM (inactive)	> 100 µM (inactive)	> 100 µM (inactive)	> 100 µM (inactive)	> 100 µM (inactive)	> 100 µM (inactive)	> 100 µM (inactive)	> 100 µM (inactive)		> 100 µM (inactive)	> 100 µM (inactive)	> 100 µM (inactive)
CN(C)CCn1c(=O)c2ccc3c4c(nn3CCN(C)C)c3cc([N+](=O)[O-])ccc3n(c1=O)c24	0.0447 µM (active)	0.0667 µM (active)	< 0.0112 µM (active)	< 0.0253 µM (active)	0.337 µM (active)	0.144 µM (active)	< 0.0125 µM (active)	0.0508 µM (active)	< 0.0256 µM (active)	0.0585 µM (active)	0.0708 µM (active)	0.0263 µM (active)	0.0384 µM (active)	0.249 µM (active)	0.105 µM (active)		0.394 µM (active)	< 0.0134 µM (active)	0.594 µM (active)	0.115 µM (active)
CCOC(=O)c1nc[nH]c1/N=N/N(C)N	92.5 µM (inactive)	98.4 µM (inactive)	61.1 µM (inactive)	> 100 µM (inactive)	> 100 µM (inactive)	> 100 µM (inactive)		> 100 µM (inactive)	> 100 µM (inactive)	91.2 µM (inactive)	> 100 µM (inactive)	1.87 µM (inactive)	> 100 µM (inactive)	20.8 µM (inactive)	> 100 µM (inactive)	> 100 µM (inactive)	> 100 µM (inactive)	> 100 µM (inactive)	> 100 µM (inactive)	> 100 µM (inactive)
CC(C)C1CN1CC(O)Cn1ccnc1[N+](=O)[O-] (stereo not drawn)		> 100 µM (inactive)	> 100 µM (inactive)	> 100 µM (inactive)	> 100 µM (inactive)	> 100 µM (inactive)	> 100 µM (inactive)	> 100 µM (inactive)	> 100 µM (inactive)	> 100 µM (inactive)	> 100 µM (inactive)	> 100 µM (inactive)	> 100 µM (inactive)	> 100 µM (inactive)	> 100 µM (inactive)	> 100 µM (inactive)	> 100 µM (inactive)	> 100 µM (inactive)	> 100 µM (inactive)	> 100 µM (inactive)
CC(C)=C=CP(=O)(O)c1ccccc1	> 100 µM (inactive)	> 100 µM (inactive)	> 100 µM (inactive)	> 100 µM (inactive)	> 100 µM (inactive)	> 100 µM (inactive)		> 100 µM (inactive)	> 100 µM (inactive)	> 100 µM (inactive)	> 100 µM (inactive)	> 100 µM (inactive)	> 100 µM (inactive)	> 100 µM (inactive)	> 100 µM (inactive)	> 100 µM (inactive)	> 100 µM (inactive)	> 100 µM (inactive)	> 100 µM (inactive)	> 100 µM (inactive)
CC(NC(=O)C(Cc1ccc(OC(=O)c2ccccc2)cc1)NC(=O)OC(C)(C)C)C(=O)NCC(=O)NC(Cc1ccccc1)C(=O)NN (stereo not drawn)	18.1 µM (inactive)	40.9 µM (inactive)	31 µM (inactive)	> 100 µM (inactive)	40.6 µM (inactive)	32.7 µM (inactive)		> 100 µM (inactive)	54.6 µM (inactive)	46.9 µM (inactive)	25.4 µM (inactive)	80.7 µM (inactive)	> 100 µM (inactive)	62.8 µM (inactive)	74.5 µM (inactive)	25.6 µM (inactive)	> 100 µM (inactive)	29.3 µM (inactive)	34.7 µM (inactive)	> 100 µM (inactive)
